Earlier results as cited in PubChem BioAssay AID1259409 (Chemical Carcinogenesis Research Information System (CCRIS), 2018).

Test system: rodent chemically induced tumor inhibition, incidence and multiplicity
Test: CCRIS tumor inhibitor studies
Settings: Route [Inhibitor]: ORAL

S=C=NCCc1ccccc1
tumour outcome (control, treated, inhibition, significance) (Carcinogen: DIETHYLNITROSAMINE, 55-18-5, N-METHYL-N-NITROSOUREA, 684-93-5, N-BUTYL-N-(4-HYDROXYBUTYL)NITROSAMINE, 3817-11-6, DIMETHY, Carcinogen: DIETHYLNITROSAMINE, 55-18-5, N-METHYL-N-NITROSOUREA, 684-93-5, N-BUTYL-N-(4-HYDROXYBUTYL)NITROSAMINE, 3817-11-6, DIMETHY, Dose [Inhibitor]: 0, 0.1% IN THE DIET FOR 30 D BEGINNING 1 DAY PRIOR TO CARCINOGEN TREATMENT (STUDY DURATION: 28 WK), Species: RAT, Strain/Sex: F344/MALE, Target Tissue: Type of Lesion: LARGE INTESTINE: ADENOMA, Dose [Carcinogen]: 100 MG/KG BW DEN ONCE FOLLOWED BY 20 MG/KG BW MNU 4 TIMES AND 0.05% BBN IN DRINKING WATER DURING FIRST 2 WK THEN 40 MG/K, Promoter: NONE USED): 27%, 54%, -100%, not significant | tumour outcome (control, treated, inhibition, significance) (Carcinogen: DIETHYLNITROSAMINE, 55-18-5, N-METHYL-N-NITROSOUREA, 684-93-5, N-BUTYL-N-(4-HYDROXYBUTYL)NITROSAMINE, 3817-11-6, DIMETHY, Carcinogen: DIETHYLNITROSAMINE, 55-18-5, N-METHYL-N-NITROSOUREA, 684-93-5, N-BUTYL-N-(4-HYDROXYBUTYL)NITROSAMINE, 3817-11-6, DIMETHY, Dose [Inhibitor]: 0, 0.1% IN THE DIET FOR 30 D BEGINNING 1 DAY PRIOR TO CARCINOGEN TREATMENT (STUDY DURATION: 28 WK), Species: RAT, Strain/Sex: F344/MALE, Target Tissue: Type of Lesion: SMALL INTESTINE: CARCINOMA, Dose [Carcinogen]: 100 MG/KG BW DEN ONCE FOLLOWED BY 20 MG/KG BW MNU 4 TIMES AND 0.05% BBN IN DRINKING WATER DURING FIRST 2 WK THEN 40 MG/K, Promoter: NONE USED): 7%, 23%, -229%, not significant | tumour outcome (control, treated, inhibition, significance) (Carcinogen: DIETHYLNITROSAMINE, 55-18-5, N-METHYL-N-NITROSOUREA, 684-93-5, N-BUTYL-N-(4-HYDROXYBUTYL)NITROSAMINE, 3817-11-6, DIMETHY, Carcinogen: DIETHYLNITROSAMINE, 55-18-5, N-METHYL-N-NITROSOUREA, 684-93-5, N-BUTYL-N-(4-HYDROXYBUTYL)NITROSAMINE, 3817-11-6, DIMETHY, Dose [Inhibitor]: 0, 0.1% IN THE DIET FOR 30 D BEGINNING 1 DAY PRIOR TO CARCINOGEN TREATMENT (STUDY DURATION: 28 WK), Species: RAT, Strain/Sex: F344/MALE, Target Tissue: Type of Lesion: THYROID: CARCINOMA, Dose [Carcinogen]: 100 MG/KG BW DEN ONCE FOLLOWED BY 20 MG/KG BW MNU 4 TIMES AND 0.05% BBN IN DRINKING WATER DURING FIRST 2 WK THEN 40 MG/K, Promoter: NONE USED): 7%, 8%, -14%, not significant | tumour outcome (control, treated, inhibition, significance) (Carcinogen: DIETHYLNITROSAMINE, 55-18-5, N-METHYL-N-NITROSOUREA, 684-93-5, N-BUTYL-N-(4-HYDROXYBUTYL)NITROSAMINE, 3817-11-6, DIMETHY, Carcinogen: DIETHYLNITROSAMINE, 55-18-5, N-METHYL-N-NITROSOUREA, 684-93-5, N-BUTYL-N-(4-HYDROXYBUTYL)NITROSAMINE, 3817-11-6, DIMETHY, Dose [Inhibitor]: 0, 0.1 IN THE DIET FOR 30 D BEGINNING 1 DAY PRIOR TO CARCINOGEN TREATMENT (STUDY DURATION: 28 WK), Species: RAT, Strain/Sex: F344/MALE, Target Tissue: Type of Lesion: SMALL INTESTINE: ADENOMA, Dose [Carcinogen]: 100 MG/KG BW DEN ONCE FOLLOWED BY 20 MG/KG BW MNU 4 TIMES AND 0.05% BBN IN DRINKING WATER DURING FIRST 2 WK THEN 40 MG/K, Promoter: NONE USED): 33%, 31%, 6%, not significant | tumour outcome (control, treated, inhibition, significance) (Carcinogen: DIETHYLNITROSAMINE, 55-18-5, N-METHYL-N-NITROSOUREA, 684-93-5, N-BUTYL-N-(4-HYDROXYBUTYL)NITROSAMINE, 3817-11-6, DIMETHY, Carcinogen: DIETHYLNITROSAMINE, 55-18-5, N-METHYL-N-NITROSOUREA, 684-93-5, N-BUTYL-N-(4-HYDROXYBUTYL)NITROSAMINE, 3817-11-6, DIMETHY, Dose [Inhibitor]: 0.1% IN THE DIET FOR 30 D BEGINNING 1 DAY PRIOR TO CARCINOGEN TREATMENT (STUDY DURATION: 28 WK), Species: RAT, Strain/Sex: F344/MALE, Target Tissue: Type of Lesion: URINARY BLADDER: CARCINOMA, Dose [Carcinogen]: 100 MG/KG BW DEN ONCE FOLLOWED BY 20 MG/KG BW MNU 4 TIMES AND 0.05% BBN IN DRINKING WATER DURING FIRST 2 WK THEN 40 MG/K, Promoter: NONE USED): 7%, 0%, 100%, not significant | tumour outcome (control, treated, inhibition, significance) (Carcinogen: DIETHYLNITROSAMINE, 55-18-5, N-METHYL-N-NITRSOUREA, 684-93-5, N-BUTYL-N-(4-HYDROXYBUTYL)NITROSAMINE, 3817-11-6, DIMETHYL, Carcinogen: DIETHYLNITROSAMINE, 55-18-5, N-METHYL-N-NITRSOUREA, 684-93-5, N-BUTYL-N-(4-HYDROXYBUTYL)NITROSAMINE, 3817-11-6, DIMETHYL, Dose [Inhibitor]: 0, 0.1% IN THE DIET FOR 30 D BEGINNING 1 DAY PRIOR TO CARCINOGEN TREATMENT (STUDY DURATION: 28 WK), Species: RAT, Strain/Sex: F344/MALE, Target Tissue: Type of Lesion: URINARY BLADDER: PAPILLOMA, Dose [Carcinogen]: 100 MG/KG BW DEN ONCE FOLLOWED BY 20 MG/KG BW MNU 4 TIMES AND 0.05% BBN IN DRINKING WATER DURING FIRST 2 WK THEN 40 MG/K, Promoter: NONE USED): 7%, 0%, 100%, not significant | tumour outcome (control, treated, inhibition, significance) (Carcinogen: N-BUTYL-N(4-HYDROXYBUTYL)NITROSAMINE (3817-11-6), Dose [Inhibitor]: 0.5 UMOL/G IN DIET BEGINNING 1 WK BEFORE CARCINOGEN EXPOSURE (STUDY DURATION: 16 WK), Species: RAT, Strain/Sex: WISTAR/MALE, Target Tissue: Type of Lesion: URINARY BLADDER: PAPILLOMA, Dose [Carcinogen]: 0.025% IN DRINKING WATER FOR 15 WK, Promoter: NONE USED): 38/40 (95%), 26/30 (87%), 8%, not significant | tumour outcome (control, treated, inhibition, significance) (Carcinogen: N-BUTYL-N(4-HYDROXYBUTYL)NITROSAMINE (3817-11-6), Dose [Inhibitor]: 0.5 UMOL/G IN DIET BEGINNING 1 WK BEFORE CARCINOGEN EXPOSURE (STUDY DURATION: 16 WK), Species: RAT, Strain/Sex: WISTAR/MALE, Target Tissue: Type of Lesion: URINARY BLADDER: TRANSITIONAL CELL CARCINOMA, Dose [Carcinogen]: 0.025% IN DRINKING WATER FOR 15 WK, Promoter: NONE USED): 4/40 (10%), 4/30 (13%), -30%, not significant | tumour outcome (control, treated, inhibition, significance) (Carcinogen: N-NITROSOBENZYLMETHYLAMINE, 937-40-6, Dose [Inhibitor]: 0, 3 UMOL/G DIET BEGINNING 2 WK PRIOR TO CARCINOGEN TREATMENT AND CONTINUING FOR 8 WK POST CARCINOGEN TREATMENT (STUDY D, Species: RAT, Strain/Sex: F344/MALE, Target Tissue: Type of Lesion: ESOPHAGUS: TUMOR, Dose [Carcinogen]: 0.5 MG/KG 1/WK FOR 15 WK, Promoter: NONE USED): 100%, 13%, 87%, not calculated | tumour outcome (control, treated, inhibition, significance) (Carcinogen: N-NITROSOBENZYLMETHYLAMINE, 937-40-6, Dose [Inhibitor]: 0, 3 UMOL/G IN DIET BEGINNING 2 WK PRIOR TO CARCINOGEN TREATMENT AND CONTINUING FOR DURATION OF STUDY (STUDY DURATION: 2, Species: RAT, Strain/Sex: F344/MALE, Target Tissue: Type of Lesion: ESOPHAGUS: TUMORS, Dose [Carcinogen]: 0.5 MG/KG BW IN 0.1 ML OF DMSO 1/WK FOR 15 WK, Promoter: NONE USED): 100%, 13%, 87%, not calculated | tumour outcome (control, treated, inhibition, significance) (Carcinogen: N-NITROSOBENZYLMETHYLAMINE, 937-40-6, Dose [Inhibitor]: 0, 6 UMOL/G DIET BEGINNING 2 WK PRIOR TO CARCINOGEN TREATMENT AND CONTINUING FOR 8 WK POST CARCINOGEN TREATMENT (STUDY D, Species: RAT, Strain/Sex: F344/MALE, Target Tissue: Type of Lesion: ESOPHAGUS: TUMOR, Dose [Carcinogen]: 0.5 MG/KG 1/WK FOR 15 WK, Promoter: NONE USED): 100%, 0%, 100%, not calculated | tumour outcome (control, treated, inhibition, significance) (Carcinogen: N-NITROSOBENZYLMETHYLAMINE, 937-40-6, Dose [Inhibitor]: 0, 6 UMOL/G IN DIET BEGINNING 2 WK PRIOR TO CARCINOGEN TREATMENT AND CONTINUING FOR DURATION OF STUDY (STUDY DURATION: 2, Species: RAT, Strain/Sex: F344/MALE, Target Tissue: Type of Lesion: ESOPHAGUS: TUMORS, Dose [Carcinogen]: 0.5 MG/KG BW IN 0.1 ML OF DMSO 1/WK FOR 15 WK, Promoter: NONE USED): 15/15 (100%), 0/15 (0%), 100%, not calculated | tumour outcome (control, treated, inhibition, significance) (Carcinogen: N-NITROSOBIS(2-OXOPROPYL)AMINE [60599-38-4], Dose [Inhibitor]: 3 UMOL IN DIET FOR 49 WK BEGINNING 2 WK POST LAST CARCINOGEN DOSE (STUDY DURATION: 52 WK), Species: HAMSTER, Strain/Sex: SYRIAN/FEMALE, Target Tissue: Type of Lesion: LIVER: CHOLANGIOCELLAR ADENOMA, Dose [Carcinogen]: 20 MG/KG BW 1X/WK FOR 2 WK (STUDY DURATION: 52 WK), Promoter: NONE): 19/25 (76.0%), 20/28 (71.4%), 6%, not significant | tumour outcome (control, treated, inhibition, significance) (Carcinogen: N-NITROSOBIS(2-OXOPROPYL)AMINE [60599-38-4], Dose [Inhibitor]: 3 UMOL IN DIET FOR 49 WK BEGINNING 2 WK POST LAST CARCINOGEN DOSE (STUDY DURATION: 52 WK), Species: HAMSTER, Strain/Sex: SYRIAN/FEMALE, Target Tissue: Type of Lesion: LIVER: CHOLANGIOCELLULAR ADENOMA, Dose [Carcinogen]: 20 MG/KG BW 1X/WK FOR 2 WK (STUDY DURATION: 52 WK), Promoter: NONE): 19/25 (76.0%), 23/28 (82.1%), -8%, not significant | tumour outcome (control, treated, inhibition, significance) (Carcinogen: N-NITROSOBIS(2-OXOPROPYL)AMINE [60599-38-4], Dose [Inhibitor]: 3 UMOL IN DIET FOR 49 WK BEGINNING 2 WK POST LAST CARCINOGEN DOSE (STUDY DURATION: 52 WK), Species: HAMSTER, Strain/Sex: SYRIAN/FEMALE, Target Tissue: Type of Lesion: LIVER: HEPATOCELLULAR ADENOMA, Dose [Carcinogen]: 20 MG/KG BW 1X/WK FOR 2 WK (STUDY DURATION: 52 WK), Promoter: NONE): 18/25 (72.0%), 16/28 (57.1%), 21%, not significant
